The record followed here is US11840707B2, “Co-culture system and method for in vitro assessment of reverse cholesterol transport” (INSTITUT DE CARDIOLOGIE DE MONTREAL, priority 2016, dated 2023).

One test deals with J774 macrophages. The test can be described thus: Co-culture assay: Specific Chol Efflux from 3H-cholesterol-labeled J774 macrophages. The format is cell-based, murine. From the text: (§1) Total Chol Efflux is the sum of co-culture medium counts plus hepatic counts, while Total Chol Uptake is defined as hepatic counts only. Both Chol Efflux and Chol Uptake are expressed as % of total counts in the system. Background values, corresponding to basal co-culture medium (without acceptors), can be subtracted from the corresponding values in presence of acceptors to obtain Specific Chol Efflux (%) and Specific Chol Uptake (%) values.
(§2) Simultaneous Measurement of Cholesterol Flux Between Cholesterol-Loaded, ^3H-Cholesterol-Labeled J774 Cells and Target HepG2 Hepatocytes in a Transwell-Clear™ Insert.
(§3) J774 cells were seeded at a density of 8,000 cells per cm^2 in 1 mL of Dulbecco's minimal essential medium (DMEM, high glucose) and supplemented with 10% fetal bovine serum (FBS) and 1% penicillin/streptomycin in standard 12-well (3.8 cm^2) flat bottom plates (Corning).
(§4) Loaded plates were pre-incubated in an incubator at 37° C. with 5% CO2 for 30-45 min without cells in order to improve later cell attachment and maximize cell spreading on the insert membrane during cell culture. After pre-incubation, the media was removed. The wells of the Transwell plates were then filled with 1.5 mL of EMEM (low glucose) supplemented with 10% FBS and 1% penicillin/streptomycin and HepG2 cells were seeded at a density of 60,000 cells per cm^2 in 0.5 mL EMEM (low glucose) supplemented with 10% FBS and 1% penicillin/streptomycin on each insert.
(§5) Following seeding in plates or inserts, both cell types were placed in a cell incubator at 37° C. filled with humidified air and 5% CO2 and incubated for 72 h.
(§6) Following the 72-hour incubation and achieving a J774 cell confluence of 70-80%, the J774 cells were washed with 1 mL per well of PBS at 20° C. After the wash, 1 mL of Labeling Medium was added to each well. The Labeling Medium contained: 1% FBS, 1% penicillin/streptomycin, 2 μCi/mL of ^3H-cholesterol (Perkin-Elmer, NET139005MC), 50 μg protein/mL of acetylated LDL (acLDL) and DMEM (high glucose). The cells were then incubated for 24 hr at 37° C. in a cell incubator filled with humidified air and 5% CO2. One plate served as a reference to determine the labeled-cholesterol level in cells prior to co-culture assay.
(§7) Following the 72-hour incubation, the culture medium was removed from HepG2 cells grown on the insert membrane and replaced with 2 mL of fresh EMEM (low glucose) supplemented with 10% FBS and 1% penicillin/streptomycin. The cells were then incubated for an additional 24 hours at 37° C. in an incubator filled with humidified air and 5% CO2.
(§8) Following the 24-hour incubation of J774 cells, the labeling medium was removed from the plates and discarded. The cells were then washed with 1 mL of phosphate-buffered saline (PBS) at 20° C. and replaced with Equilibration Medium containing: DMEM (high glucose), 0.2% Bovine Serum Albumin (BSA) (low endotoxin, fatty acid-free, Sigma, cat. #A8806) and the appropriate Treatment under study. The J774 culture was then incubated for 24 hours.
(§9) J774 cells ongoing the ^3H-cholesterol equilibration phase and/or HepG2 cells before co-culture can be treated by various means. Pharmacological agent is diluted in the appropriate culture medium with 0.2% BSA and vehicle (solvent) is tested in parallel. Modulation of gene expression is also accomplished at this step, by transfection of siRNA according to the manufacturer's protocol, and a control non-silencing RNA is tested in parallel.
After 24 hour of incubation, equilibration medium from J774 culture and culture medium from HepG2 cells were discarded. Cells were washed with 1 mL (J774) or 2 mL (HepG2) of PBS at 20° C. and the wash medium discarded. Transwell inserts containing HepG2 cells were removed and transferred to each well containing the J774 culture. 2 mL of co-culture media (DMEM without phenol red, high glucose, 4.5 g/L) were added to each well. The resulting co-culture system was incubated in a cell incubator at 37° C. for 24 hours.

The test system of another test is HepG2 hepatocytes. The test is described as follows: Co-culture assay: Specific Chol Uptake into HepG2 hepatocytes on insert membrane. Type of test: cell-based, human. The following applies: for reduction of hepatic Specific Chol Uptake: 10 μM, HepG2 overnight and during co-culture.
Description: as §1, §2, §3
as §4, with “Transwell-Clear™ 12-well plates (Corning, cat. #3642), each consisting of 12 cylindrical cell culture inserts (1.12 cm^2 insert/well) were bathed with 2 mL Eagle's minimal essential medium (EMEM, low glucose) distributed as follows: 0.5 mL in the insert and 1.5 mL in the well. Loaded” for “Loaded”
as §5, §6, §7, §8, §9
After 24 hour of incubation, equilibration medium from J774 culture and culture medium from HepG2 cells were discarded. Cells were washed with 1 mL (J774) or 2 mL (HepG2) of PBS at 20° C. and the wash medium discarded.

[1] abbreviates: 10 nM in co-culture medium for 24 h, acceptor complete human serum.
The mark [2] stands for this setting: 24 h co-culture, one-site non-linear regression.
[3] abbreviates: purified acceptor, 24 h co-culture, one-site non-linear regression.
Where [4] appears, read: J774 pre-treated overnight 10 μM, acceptors HS and DHS, vs vehicle DMSO.

As for “PCSK9 D374Y: purified human PCSK9 gain-of-function D374Y mutant protein”, the “effect on Specific Chol Efflux” value in the test on J774 macrophages (setting [1]) was “no effect”; with J774 macrophages (10 nM in co-culture medium for 24 h, acceptor complete human serum, listed as purified PCSK9 mutant), “did not influence”. Further, the “effect on Specific Chol Uptake” value in the test with HepG2 hepatocytes (setting [1]) was “markedly reduced”.
Consider `CCOC(=O)N1c2ccc(C(F)(F)F)cc2[C@@H](N(Cc2cc(C(F)(F)F)cc(C(F)(F)F)c2)C(=O)OC)C[C@H]1CC` [torcetrapib], for which the “effect on Specific Efflux” value in the test on J774 macrophages (10 μM, HepG2 overnight and during co-culture, acceptors HS and DHS) is listed as “did not affect”. Further, the “reduction of hepatic Specific Chol Uptake” value in the test with HepG2 hepatocytes (acceptor apoB-depleted serum) was 21%; in the test with HepG2 hepatocytes (acceptor apoB-depleted serum, listed as Torcetrapib), “reduced”; in the test on HepG2 hepatocytes (acceptor complete serum) it was 31%; with HepG2 hepatocytes (acceptor complete serum, listed as Torcetrapib), “reduced”.
Consider “ApoA-I: human apolipoprotein A-I, purified, used as Chol acceptor”, for which the “Bmax (maximal flux), Specific Efflux” value with J774 macrophages (setting [2]) is 15.9 ± 0.9%. For the same molecule, in the test with J774 macrophages (acceptor at 100 μg/ml, 24 h co-culture), the “Specific Chol Efflux compared to LDL” value is recorded as “higher”. Besides, the “kA (affinity constant), Specific Efflux” value in the test with J774 macrophages (setting [3]) is recorded as 7.2 ± 1.4 μg protein/mL. Further, in the test on HepG2 hepatocytes (setting [2]), the “Bmax (maximal flux), Specific Uptake” value was determined as 0.83 ± 0.03%. Besides, the “kA (affinity constant), Specific Uptake” value in the test on HepG2 hepatocytes (setting [3]) worked out at 7.0 ± 1.0 μg protein/mL.
Consider `O=S(=O)(c1ccccc1)N(CC(F)(F)F)c1ccc(C(O)(C(F)(F)F)C(F)(F)F)cc1` [TO901317], for which, in the test with J774 macrophages (setting [4]), the “effect on Specific Chol Efflux” value is “increased”. In the test with HepG2 hepatocytes (setting [4]), the “effect on Specific Chol Uptake” value is reported as “increased”.
In the case of `CC[C@H](C)C(=O)O[C@H]1CCC=C2C=C[C@H](C)[C@H](CC[C@@H]3C[C@@H](O)CC(=O)O3)[C@H]21` [mevastatin], the “effect on Specific Chol Efflux” value with J774 macrophages (HepG2 pre-treated overnight 25 μM, acceptor human serum) was “did not change”. The “effect on Chol Efflux to human serum” value in the test with J774 macrophages (hepatocytes pre-treated 10 μM, acceptor human serum) is “no effect”. Also, the “effect on Specific Chol Uptake” value was “reduced effect” in the test on HepG2 hepatocytes (HepG2 pre-treated overnight 25 μM, acceptor apoB-depleted serum) and “significantly increased” in the test on HepG2 hepatocytes (HepG2 pre-treated overnight 25 μM, acceptor complete human serum). The “effect on Chol Uptake” value in the test on HepG2 hepatocytes (hepatocytes pre-treated 10 μM, acceptor apoB-depleted serum, compared to complete serum) is given as “reduced effect”. In the test with HepG2 hepatocytes (hepatocytes pre-treated 10 μM, acceptor complete human serum), the “effect on hepatic Chol Uptake” value is “increased”.
